Results on one molecule are retold here after US10981021B2, “Method for transiently disrupting a region of the blood-brain barrier of a human” (Carthera, priority 2016, dated 2021).

Each structure is given as a SMILES string. “And” between values parts separate entries of the source, which are not always exact repeats. Equal entries are not always repeated.

For the data set, the system named is recurrent glioblastoma (GBM). Description: Clinical trial: monthly ultrasound BBB opening followed by carboplatin in recurrent glioblastoma patients. From the text: Patients experiencing recurrence (first, second or third) of a histologically proven de novo glioblastoma (GBM), previously treated with at least the first line standard of care were included (i.e. radiation with concurrent and adjuvant temozolomide). Patients had to have a growing contrast-enhancing tumor of less than 35 mm in diameter and be eligible for carboplatin-based chemotherapy.
The trial was designed as a dose escalation study (Simon et al. 1997) in which the US pressure was increased throughout the study starting at 0.5 and increasing to 1.1 MPa through 5 different “dose” levels (0.50, 0.65, 0.80, 0.95, and 1.1 MPa).
A minimum of three patients were included at each dose level. If none of the patients experienced a dose-limiting toxicity (DLT), the next dose level was opened. If one patient experienced a DLT, three additional patients were enrolled at that dose level.
Patients received US activation and BBB disruption every four weeks. The first treatment was performed at the initial “dose” level for the inclusion group, the second treatment at the next highest dose level, etc. Patients were treated monthly for up to a maximum of six treatments or until there was evidence of tumor progression.
All patients were assessed monthly using MR imaging, blood sampling, and clinical neurological evaluation. Two days prior to each planned ultrasound treatment, tumor status was evaluated on MRI according to the Response Assessment in Neuro-Oncology (RANO) Criteria (Wen et al. 2010). Progression-free survival (PFS) and overall survival (OS) were also assessed. Patients left the study if tumor progression was identified, which defined progression as an increase in tumor size of more than 25% or an increase in T2/FLAIR or as a neurological status degradation (Wen et al. 2010).
In the absence of tumor progression and significant toxicity, the BBB opening session followed by carboplatin injection was scheduled two days after. […]
Carboplatin dose (AUC, area under the curve) administration was calculated based on the Calvert formula taking into account renal function. […]

Setting [1] is: per patient, recurrent GBM, monthly US (0.5-1.1 MPa) + SonoVue BBB opening followed by i.v. carboplatin AUC 4-6.

In the case of `N.N.O=C([O-])C1(C(=O)[O-])CCC1.[Pt+2]` [Carboplatin], for the setting “GBM patients, carboplatin perfusion started within 60 minutes after US BBB opening”, the cerebral carboplatin-related toxicity entry is reported as “No cerebral carboplatin-related toxicity was observed”. Besides, under setting [1], the Duration on-study is 3 months (4×) and 2 months (6×) and 2.5 months and >5 months and >4 months and 4 months and still on study; the “Tumor Progression (MRI, FLAIR/ T1Gd) in the acoustic” value was “Yes (5×) and No (9×) and slight”.
